Measured values published in patent publication US9757472B2, “Proteas stabilized antibacterial peptides for S. aureus” (Arizona Board of Regents on Behalf of Arizona State …, priority 2014, dated 2017).
Where two headings read alike, the source gives them in different places. Starred links: 1 amine or outer side, 2 acyl side, 3 side chain; linkers in the order of their positions; H or OH if unused. Positions of bridges follow the written chain, without caps; N, C: chain ends. Non-standard residues stand in square brackets, D forms with d. Residues, ends and D or L forms follow the SMILES beside them. Chains are numbered I, II in the order given. No end group written: not given here. ξ: configuration not given here. *: point of attachment. Succinimide(1-C2H4CO,3-yl) = O=C1CC([*:1])C(=O)N1CCC(=O)[*:2]; Biotin = O=C1N[C@H]2[C@H](CS[C@H]2CCCCC(=O)*)N1; X2 = O=C1NC2CS[C@@H](CCCCC(=O)*)C2N1; X1 = O=C1NC2CSC(CCCCC(=O)*)C2N1; ξK = NCCCCC(N)C(=O)O; ξC = NC(CS)C(=O)O; ξS = NC(CO)C(=O)O; tBu = CC(C)(C)*

Key:
MSSA [1] = experiment: Minimum bactericidal concentration (MBC) / bactericidal activity against MSSA; format: cell-based, S. aureus; conditions: for MBC (μM) (MSSA): 14 h
red blood cell [2] = test system: red blood cell
MSSA [3] = test system: MSSA
in vitro = conditions: mouse, serum
red blood cell [4] = experiment: Hemolysis (H50); conditions: Table 3

Compound | MIC (μM) (MSSA) (MSSA [3]) [µM] | MBC (μM) (MSSA) (MSSA [1]) [µM] | H50 (red blood cell [2]) [µM] | further results
I: D[dR]IFH[dK]MQH[dK]PY[dK]I[dK][dK][dR]GSGGGK[ξK](X1)-NH2 / II: [dR]W[dR][dR]H[dK]HF[dK][dR]PH[dR][dK]H[dK][dR]GSG (amide I:23-II:C) [Synbody (4)] |  |  |  | bactericidal activity against MSSA (in words) (MSSA [1]): some bactericidal activity against MSSA; H50 = concentration that causes 50% hemolysis (red blood cell [2]): >200 µM; MIC, MSSA (n = 3) (MSSA [3]): 2.2 µM; MIC, MRSA (n = 2) (MRSA): 3.3 µM; half-life (in vitro): ~2.17 h
N=C(N)NCCC[C@H](NC(=O)CNC(=O)[C@H](CO)NC(=O)[C@@H](N)CS)C(=O)N[C@H](CCCNC(=N)N)C(=O)N[C@H](CCCCN)C(=O)N[C@H](CCCNC(=N)N)C(=O)N1CCC[C@H]1C(=O)N[C@H](CCCNC(=N)N)C(=O)N[C@H](CCCNC(=N)N)C(=O)N[C@H](CCCCN)C(=O)N[C@H](CCCNC(=N)N)C(=O)N1CCC[C@H]1C(=O)N[C@@H](CCCNC(=N)N)C(=O)N[C@H](CCCNC(=N)N)C(=O)N[C@H](CCCCN)C(=O)N[C@@H](CCCNC(=N)N)C(=O)N1CCC[C@H]1C(=O)N[C@@H](CCCNC(=N)N)C(=O)N[C@H](CCCNC(=N)N)C(=O)O [D2, CSGRrkrPrrkrPRrkRPRr] (H-CSGR[dR][dK][dR]P[dR][dR][dK][dR]PR[dR][dK]RPR[dR]-OH; N-terminus and C-terminus assumed) | <50 |  |  | 
I: Ac-[dR]W[dR][dR]H[dK]H[dF][dK][dR]PH[dR][dK]H[dK][dR]GSC-NH2 / II: Ac-[dR]W[dR][dR]H[dK]H[dF][dK][dR]PH[dR][dK]H[dK][dR]GSC-NH2 / III: [ξK]G[ξS][ξK][ξS]G[ξK](X2)G[ξC](tBu)-NH2 (linker I:20-III:1, II:20-III:N via Succinimide(1-C2H4CO,3-yl)) [Ly-Ly-Sc0] | 12.5 | 12.5 | >500 | MIC (μM) MRSA (USA300) (MRSA): 6.25 µM
I: CSGR[dR][dK][dR]P[dR][dR][dK][dR]PR[dR][dK]RPR[dR] / II: CSGR[dR][dK][dR]P[dR][dR][dK][dR]PR[dR][dK]RPR[dR] / III: [ξK]G[ξS][ξK][ξS]G[ξK](X2)G[ξC](tBu)-NH2 (linker I:1-III:1, II:1-III:N via Succinimide(1-C2H4CO,3-yl)) [D2-D2-Sc0, CSGRrkrPrrkrPRrkRPRr-Sc0-CSGRrkrPrrkrPRrkRPRr] | 5 | 5 | >500 | 
I: CSG[dK][dK]RRHH[dR][dR][dK][dK]R[dR]HH[dR][dR]K / II: CSG[dK][dK]RRHH[dR][dR][dK][dK]R[dR]HH[dR][dR]K / III: [ξK]G[ξS][ξK][ξS]G[ξK](X2)G[ξC](tBu)-NH2 (linker I:1-III:1, II:1-III:N via Succinimide(1-C2H4CO,3-yl)) [D1-D1-Sc0, CSGkkRRHHrrkkRrHHrrK-Sc0-CSGkkRRHHrrkkRrHHrrK] | 10 | 5 | >500 | 
N=C(N)NCCC[C@H](NC(=O)[C@H](CCCNC(=N)N)NC(=O)[C@@H](CCCCN)NC(=O)[C@@H](CCCCN)NC(=O)CNC(=O)[C@H](CO)NC(=O)[C@@H](N)CS)C(=O)N[C@@H](Cc1c[nH]cn1)C(=O)N[C@@H](Cc1c[nH]cn1)C(=O)N[C@H](CCCNC(=N)N)C(=O)N[C@H](CCCNC(=N)N)C(=O)N[C@H](CCCCN)C(=O)N[C@H](CCCCN)C(=O)N[C@@H](CCCNC(=N)N)C(=O)N[C@H](CCCNC(=N)N)C(=O)N[C@@H](Cc1c[nH]cn1)C(=O)N[C@@H](Cc1c[nH]cn1)C(=O)N[C@H](CCCNC(=N)N)C(=O)N[C@H](CCCNC(=N)N)C(=O)N[C@@H](CCCCN)C(=O)O [D1, CSGkkRRHHrrkkRrHHrrK] (H-CSG[dK][dK]RRHH[dR][dR][dK][dK]R[dR]HH[dR][dR]K-OH; N-terminus and C-terminus assumed) | <50 |  |  | 
I: CSGEMWAIMPPIIKPDNKGH-NH2 / II: CSGR[dR][dK][dR]P[dR][dR][dK][dR]PR[dR][dK]RPR[dR]-NH2 / III: KGSKSGK(Biotin)GC(tBu)-NH2 (linker I:1-III:1, II:1-III:N via Succinimide(1-C2H4CO,3-yl)) [D2-88-SC0] |  |  |  | H50 (red blood cell [4]): >500 µM
